According to the NIST ThermoML archive (doi:10.1016/j.jct.2010.08.021):
“And” between values parts separate entries of the source, which are not always exact repeats. Equal values may be shown once.

Experiment: mn = molality of the nth substance listed, in mol/kg
Details: 101 kPa, Liquid; for speed of sound: Sing-around technique in a fixed-path interferometer; for mass density: Vibrating tube method

N.N.O=C(O)CC(O)(CC(=O)O)C(=O)O [ammonium citrate, dibasic] + O
Details	mass density, 303.15 K	mass density, 308.15 K	mass density, 313.15 K	speed of sound, 303.15 K	speed of sound, 308.15 K	speed of sound, 313.15 K
m1 = 0.0059	996.228 kg/m3	994.605 kg/m3	992.787 kg/m3	1510.1 m/s	1520.8 m/s	1529.8 m/s
m1 = 0.0071	996.341 kg/m3	994.721 kg/m3	992.9 kg/m3	1510.3 m/s	1520.9 m/s	1530 m/s
m1 = 0.0087	996.506 kg/m3	994.88 kg/m3	993.06 kg/m3	1510.5 m/s	1521.1 m/s	1530.2 m/s
m1 = 0.0129	996.916 kg/m3	995.288 kg/m3	993.463 kg/m3	1511 m/s	1521.6 m/s	1530.7 m/s
m1 = 0.0177	997.381 kg/m3	995.753 kg/m3	993.924 kg/m3	1511.6 m/s	1522.2 m/s	1531.3 m/s
m1 = 0.0222	997.837 kg/m3	996.203 kg/m3	994.373 kg/m3	1512.2 m/s	1522.8 m/s	1531.8 m/s
m1 = 0.0266	998.259 kg/m3	996.623 kg/m3	994.79 kg/m3	1512.6 m/s	1523.2 m/s	1532.2 m/s
m1 = 0.0311	998.698 kg/m3	997.058 kg/m3	995.224 kg/m3	1513.2 m/s	1523.8 m/s	1532.8 m/s
m1 = 0.0354	999.119 kg/m3	997.475 kg/m3	995.638 kg/m3	1513.8 m/s	1524.3 m/s	1533.3 m/s
m1 = 0.0423	999.789 kg/m3	998.143 kg/m3	996.299 kg/m3	1514.6 m/s	1525.1 m/s	1534.1 m/s
m1 = 0.0446	1000.02 kg/m3	998.37 kg/m3	996.527 kg/m3	1514.9 m/s	1525.4 m/s	1534.3 m/s
m1 = 0.0468	1000.23 kg/m3	998.58 kg/m3	996.735 kg/m3	1515.1 m/s	1525.6 m/s	1534.6 m/s
m1 = 0.0492	1000.48 kg/m3	998.825 kg/m3	996.978 kg/m3	1515.4 m/s	1525.9 m/s	1534.8 m/s
m1 = 0.0562	1001.11 kg/m3	999.453 kg/m3	997.604 kg/m3	1516.2 m/s	1526.7 m/s	1535.6 m/s
m1 = 0.0645	1001.92 kg/m3	1000.26 kg/m3	998.406 kg/m3	1517.2 m/s	1527.7 m/s	1536.6 m/s
m1 = 0.0748	1002.88 kg/m3	1001.21 kg/m3	999.345 kg/m3	1518.4 m/s	1528.8 m/s	1537.7 m/s
m1 = 0.0797	1003.36 kg/m3	1001.68 kg/m3	999.818 kg/m3	1519 m/s	1529.4 m/s	1538.2 m/s
m1 = 0.09	1004.34 kg/m3	1002.65 kg/m3	1000.78 kg/m3	1520.2 m/s	1530.5 m/s	1539.3 m/s
m1 = 0.5	1040.04 kg/m3 and 1040.04 kg/m3 and 1040 kg/m3	1038.13 kg/m3 and 1038.12 kg/m3 and 1038.08 kg/m3	1036.06 kg/m3 and 1036.02 kg/m3	1565.1 m/s and 1564.9 m/s and 1564.9 m/s	1573.9 m/s and 1573.7 m/s and 1573.7 m/s	1581.2 m/s and 1581 m/s and 1581 m/s
m1 = 0.988	1077.11 kg/m3	1075.01 kg/m3	1072.78 kg/m3	1615 m/s	1622.1 m/s	1628 m/s
m1 = 0.997	1077.07 kg/m3	1074.96 kg/m3	1072.73 kg/m3	1614.9 m/s	1622 m/s	1627.9 m/s
m1 = 0.998	1077.11 kg/m3	1075.01 kg/m3	1072.78 kg/m3	1615 m/s	1622.1 m/s	1628 m/s
